Source: patent publication US20180037923A1, “SELECTIVE DETECTION OF LACTIC ACID AND/OR ACETIC ACID BACTERIA OR OF FUNGI” (priority 2015, published 2018)
Where “and” joins values, the source holds several entries; their conditions need not be identical. Equal values may be shown once.

Assays:
Sacch. Diastaticus IFBM = test: Agar plate count after contact with antifungal; assay type: cell-based, Saccharomyces diastaticus; details: 400 mg/L; count at contact time 0 h 2.10^5 CFU/mL
Excerpt: (§1) The word “bactericide” refers to a treatment having the effect of reducing a bacterial population by at least three decimal logarithms of colony forming units/ml on an agar plate count of a sample after treatment.
(§2) The toxicity results on yeasts and on bacteria are presented in the table below displaying the duration of exposure of the fungal flora to molecule A1 and the associated fluorescence measurement: yeasts lysis after exposure to the antifungal was confirmed by microscopic examination and methylene blue staining.
(§3) The words “contact time” refer to below, the time of exposure of the microorganisms to the fungicidal product, here molecule A1.
(§4) Below: “No CFU” is the abbreviation for “No Colony forming unit on agar plate count”.
(§5) The toxicity results on yeasts and on bacteria are presented in the table below displaying the duration of exposure of the fungal flora to the molecule A2 and are obtained by enumeration on MRS agar media.

[1] = test system: Acetobacter aceti DSM 3508; test: Agar plate count after contact with antifungal; assay type: cell-based; details: count at contact time 0 h 2.9.10^7 CFU/mL
Excerpt: as §1, §2, §3, §4, §5

[2] = test system: Brettanomyces bruxellensis Wyeast labs; test: Agar plate count after contact with antifungal; assay type: cell-based
Excerpt: as §1, §2, §3, §4, §5

Dekkera anomala IFBM = test: Agar plate count after contact with antifungal; assay type: cell-based; details: 400 mg/L; count at contact time 0 h 1.10^5 CFU/mL
Excerpt: as §1, §2, §3, §4, §5

[3] = test system: Lactobacillus brevis IFBM; test: Agar plate count after contact with antifungal; assay type: cell-based; details: count at contact time 0 h 7.10^5 CFU/mL
Excerpt: as §1, §2, §3, §4, §5

[4] = test system: Lactobacillus lindneri DSM 20690; test: Agar plate count after contact with antifungal; assay type: cell-based
Excerpt: as §1, §2, §3, §4, §5

[5] = test system: Lactobacillus parabuchneri DSM 5708; test: Agar plate count after contact with antifungal; assay type: cell-based; details: count at contact time 0 h 1.4.10^6 CFU/mL
Excerpt: as §1, §2, §3, §4, §5

[6] = test system: Lactobacillus paracasei IFBM; test: Agar plate count after contact with antifungal; assay type: cell-based; details: count at contact time 0 h 1.4.10^7 CFU/mL
Excerpt: as §1, §2, §3, §4, §5

[7] = test system: Oenococcus oeni DSM 20252; test: Agar plate count after contact with antifungal; assay type: cell-based
Excerpt: as §1, §2, §3, §4, §5

[8] = test system: Zyggosaccharomyces bailii; test: Agar plate count after contact with antifungal; assay type: cell-based; details: 400 mg/L; count at contact time 0 h 3.10^5 CFU/mL
Excerpt: as §1, §2, §3, §4, §5

G. oxydans DSM 7145 = test: Agar plate count after contact with antifungal; assay type: cell-based, Gluconobacter oxydans
Excerpt: as §1, §2, §3, §4, §5

[9] = test system: lactic acid bacteria and acetic acid bacteria; test: Bactericidal action on the bacterial flora (conclusion from agar plate counts); assay type: cell-based; details: bactericide = reduction by at least three decimal logarithms of CFU/ml
Excerpt: as §1, §2, §5

[10] = test system: Brettanomyces bruxellensis; test: Atpmetry check, initial protocol (Filtravette), with plate count; assay type: cell-based; details: 4 h contact time; without antifungal 2.8.10^6 CFU/500 μL
Experimental: (§6) For the molecule A1, an Atpmetry check of the fungal flora destruction and of the antifungal treatment harmlesness on the lactic acid or acetic acid bacterial flora has been done for a contact time of 4 hours or 8 hours and on different strains.
(§7) Strains tested: Oenococcus oeni DSM, Gluconobacter oxydans, B. bruxellensis, S. cerevisae, prepared in MRS broth.
(§8) Materials: Lum-1 ATP meter (model analogous to Profile-1 bioluminometer from New Horizons Diagnostics) was tested with Biothema Ab bioluminescence reagents, namely reagents “ATP Eliminating Buffer”, “Extractant B/S”, “ATP Reagent HS” and 0.45 μm porosity Filtravette™ cuvette-filters from New Horizons Diagnostics.
(§9) Addition of 500 μL of the suspension without fungicidal treatment or with fungicidal treatment inside a 10 mL plastic syringe containing at its end a cell concentrator incorporating a Filtravette™.
(§10) Filtration through the Filtravette™
(§11) Filtravette™ deposit on a Filtravette™ holder with a blotter pad below
(§12) Addition of 50 μL of “ATP Eliminating Buffer” inside the Filtravette
(§13) 10 minutes incubation at room temperature
(§14) Flushing of the “ATP Eliminating Buffer” Reagent through the blotter pad by positive pressure
(§15) Homogenization and 1 minute incubation.
(§16) Addition of 240 μL of “ATP Reagent HS”. Homogenization.
(§17) Insertion of the Filtravette into the Lum-1 drawer and closure of the drawer.

Gluconobacter oxydans = test: as above; assay type: cell-based
Experimental: as §6, §7, §8, §9, §10, §11, §12, §13, §14, §15, §16, §17

Oenococcus oeni DSM = test: as above; assay type: cell-based; details: 4 h contact time; without antifungal 0.9.10^7 CFU/500 μL
Experimental: as §6, §7, §8, §9, §10, §11, §12, §13, §14, §15, §16, §17

[11] = test system: Saccharomyces cerevisae DSM; test: as above; assay type: cell-based; details: Antifungal 4 h contact time
Experimental: as §6, §7, §8, §9, §10, §11, §12, §13, §14, §15, §16, §17

[12] = test system: Brettanomyces bruxellensis; test: Atp bioluminescence, simplified protocol, with plate count; assay type: cell-based; details: Treated 8 h antifungal contact time
Experimental: Use of […] transparent Greiner Bio One sterile flat bottom disposable cuvettes with Biothema AB bioluminescence reagents • 1. […] Addition of 150 μL of “ATP Reagent HS”, Homogenization. • 4.

yeasts = test: Microscopic examination and methylene blue staining of yeasts after antifungal; assay type: cell-based
Excerpt: as §2

[13] = test system: Saccharomyces diastaticus; test: Atp bioluminescence, simplified protocol, with plate count; details: Treated (4 h)
[14] = 200 mg/L, count at contact time 0 h 6.10^6 CFU/mL

**Q.** With C[C@@H]1[C@H](O)[C@@H](C)/C=C/C=C/C=C/C=C/C=C/C=C/C=C/[C@H](O[C@@H]2O[C@H](C)[C@@H](O)[C@H](N)[C@@H]2O)C[C@@H]2O[C@](O)(C[C@@H](O)C[C@@H](O)[C@H](O)CC[C@@H](O)C[C@@H](O)CC(=O)O[C@H]1C)C[C@H](O)[C@H]2C(=O)O [Molecule A1, Amphotericin B] as the compound, how does the “Agar plate count contact time 4 h” value (Sacch. Diastaticus IFBM) read?
**A.** No CFU

**Q.** What about the “Agar plate count contact time 4 h” value ([1]; 200 mg/L) of the same compound?
**A.** 8.10^8 CFU/mL

**Q.** And the “Agar plate count contact time 4 h” value ([1]; 400 mg/L)?
**A.** 3.10^7 CFU/mL

**Q.** What about the “Agar plate count contact time 4 h” value [2, 14] of the same compound?
**A.** No CFU

**Q.** And the “Agar plate count contact time 4 h” value ([2]; 400 mg/L, count at contact time 0 h 3.10^5 CFU/mL)?
**A.** No CFU

**Q.** And the “Agar plate count contact time 4 h” value (Dekkera anomala IFBM)?
**A.** No CFU

**Q.** And the “Agar plate count contact time 4 h” value ([3]; 200 mg/L)?
**A.** 2.9.10^5 CFU/mL

**Q.** What about the “Agar plate count contact time 4 h” value ([3]; 400 mg/L) of the same compound?
**A.** 3.10^5 CFU/mL

**Q.** And the “Agar plate count contact time 4 h” value [4, 14]?
**A.** 2.10^6 CFU/mL

**Q.** And the “Agar plate count contact time 4 h” value ([4]; 400 mg/L, count at contact time 0 h 6.10^5 CFU/mL)?
**A.** 7.10^4 CFU/mL

**Q.** And the “Agar plate count contact time 4 h” value ([5]; 200 mg/L)?
**A.** 1.10^6 CFU/mL

**Q.** What about the “Agar plate count contact time 4 h” value ([5]; 400 mg/L) of the same compound?
**A.** 3.10^5 CFU/mL

**Q.** What about the “Agar plate count contact time 4 h” value ([6]; 200 mg/L) of the same compound?
**A.** 2.4.10^7 CFU/mL

**Q.** What about the “Agar plate count contact time 4 h” value ([6]; 400 mg/L) of the same compound?
**A.** 1.10^7 CFU/mL

**Q.** And the “Agar plate count contact time 4 h” value ([7]; 200 mg/L, count at contact time 0 h 4.10^9 CFU/mL)?
**A.** 6.10^9 CFU/mL

**Q.** What about the “Agar plate count contact time 4 h” value ([7]; 400 mg/L, count at contact time 0 h 4.10^7 CFU/mL) of the same compound?
**A.** 5.10^7 CFU/mL

**Q.** What about the “Agar plate count contact time 4 h” value [8] of the same compound?
**A.** No CFU

**Q.** And the “Agar plate count contact time 4 h” value (G. oxydans DSM 7145; 200 mg/L, count at contact time 0 h 8.10^8 CFU/mL)?
**A.** 1.10^9 CFU/mL

**Q.** What about the “Agar plate count contact time 4 h” value (G. oxydans DSM 7145; 400 mg/L, count at contact time 0 h 8.10^7 CFU/mL) of the same compound?
**A.** 9.10^7 CFU/mL

**Q.** And the “Bactericidal action on lactic acid and acetic acid flora” value ([9]; doses of 200 mg/liter)?
**A.** non-bactericidal for lactic acid bacteria and acetic acid bacteria

**Q.** What about the “Bactericidal action on lactic acid and acetic acid flora” value ([9]; doses of 400 mg/liter) of the same compound?
**A.** non-bactericidal

**Q.** What about the “Plate count with antifungal” value [10] of the same compound?
**A.** 0 CFU/500 μL

**Q.** What about the “Atp bioluminescence with antifungal treatment” value (from here on “Atp bioluminescence”) (Gluconobacter oxydans; MRS broth, 500 μL analysed, 1.10^7 CFU/500 μL before treatment, 115966 RLU) of the same compound?
**A.** 77057 RLU

**Q.** And the “Plate count with antifungal” value (Gluconobacter oxydans; before treatment 1.10^7 CFU/500 μL)?
**A.** 4.1.10^6 CFU/500 μL

**Q.** And the “Plate count with antifungal” value (Oenococcus oeni DSM)?
**A.** 4.10^6 CFU/500 μL

**Q.** And the “Agar plate count with antifungal” value ([11]; start 5.10^2 CFU/500 μL)?
**A.** time no count on agar

**Q.** What about the “Atp bioluminescence” value ([11]; start 5.10^2 CFU/500 μL, untreated 206949 and 149508 RLU) of the same compound?
**A.** 642 RLU

**Q.** And the “Agar plate count with antifungal” value ([11]; start 5.10^3 CFU/500 μL)?
**A.** time no count on agar

**Q.** And the “Atp bioluminescence” value ([11]; start 5.10^3 CFU/500 μL, untreated >1000000 RLU)?
**A.** 4665 RLU

**Q.** What about the “total bioluminescence with lysis agent” value ([12]; start 2.7.10^2 CFU/100 μL, untreated with lysis agent 26990 and 31661, background 862 and 718 RLU) of the same compound?
**A.** 933 RLU and 553 RLU

**Q.** And the “total bioluminescence with lysis agent” value ([12]; start 2.7.10^3 CFU/100 μL, untreated with lysis agent 242958 and 265513, background 5346 and 5390 RLU)?
**A.** 4441 RLU and 4433 RLU

**Q.** And the Concentration after treatment ([12]; untreated 2.7.10^2 CFU/100 μL)?
**A.** 0 CFU/100 μL

**Q.** And the Concentration after treatment ([12]; untreated 2.7.10^3 CFU/100 μL)?
**A.** 0 CFU/100 μL

**Q.** And the “yeasts lysis after exposure to the antifungal” value (yeasts)?
**A.** confirmed

**Q.** And the “total bioluminescence in duplicate with lysis agent” value ([13]; start 7.5.10^1 CFU/100 μL, untreated + extractant 1934 and 1241 RLU)?
**A.** 482 RLU

**Q.** And the “luminescent backgroud noise in duplicate without lysis agent after luciferin/luciferase addition” value ([13]; start 7.5.10^1 CFU/100 μL, untreated background 34 and 34 RLU)?
**A.** 457 RLU and 436 RLU

**Q.** What about the “total bioluminescence in duplicate with lysis agent” value ([13]; start 7.5.10^2 CFU/100 μL, untreated + extractant 16239 and 16707 RLU) of the same compound?
**A.** 4393 RLU

**Q.** What about the “luminescent backgroud noise in duplicate without lysis agent after luciferin/luciferase addition” value ([13]; start 7.5.10^2 CFU/100 μL, untreated background 211 and 223 RLU) of the same compound?
**A.** 3803 RLU and 3837 RLU

**Q.** What about the Concentration after treatment ([13]; untreated 7.5.10^1 CFU/100 μL) of the same compound?
**A.** 0 CFU/100 μL

**Q.** What about the Concentration after treatment ([13]; untreated 7.5.10^2 CFU/100 μL) of the same compound?
**A.** 0 CFU/100 μL
